# Columns and labels:
# [1] = target: Cyclin-dependent kinase 4 (Homo sapiens) (UniProt P11802); conditions: Compound concentration 1000.0 nM
# [2] = target: Serine/threonine-protein kinase TAO3 (Homo sapiens) (UniProt Q9H2K8); conditions: Compound concentration 1000.0 nM
# [3] = target: Insulin-like growth factor 1 receptor (Homo sapiens) (UniProt P08069); conditions: Compound concentration 1000.0 nM
# [4] = target: T1, 5-hydroxytryptamine receptor 1A (Homo sapiens) (UniProt P08908); conditions: Compound concentration 10.0 uM
# T1 sequence (whole entry): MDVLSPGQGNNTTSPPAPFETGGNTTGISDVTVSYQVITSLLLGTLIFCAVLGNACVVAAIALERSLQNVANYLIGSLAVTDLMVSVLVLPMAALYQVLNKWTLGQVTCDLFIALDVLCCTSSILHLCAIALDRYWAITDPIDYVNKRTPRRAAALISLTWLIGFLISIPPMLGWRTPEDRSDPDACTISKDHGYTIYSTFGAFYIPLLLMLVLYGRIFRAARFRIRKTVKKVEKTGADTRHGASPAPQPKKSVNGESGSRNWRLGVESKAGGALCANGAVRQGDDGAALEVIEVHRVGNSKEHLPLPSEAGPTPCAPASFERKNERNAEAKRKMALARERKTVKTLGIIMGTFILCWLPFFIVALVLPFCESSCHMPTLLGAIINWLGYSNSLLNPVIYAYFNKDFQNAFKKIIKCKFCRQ
# [5] = target: Mitogen-activated protein kinase kinase kinase 11 (Homo sapiens) (UniProt Q16584); conditions: Compound concentration 1000.0 nM
# [6] = test system: Tyrosine-protein kinase ABL1 (Homo sapiens), P00519 [Q252H]; conditions: Compound concentration 1000.0 nM
# [7] = target: Sigma non-opioid intracellular receptor 1 (Homo sapiens, UniProt Q99720); conditions: Compound concentration 10.0 uM
# [8] = target: Mitogen-activated protein kinase kinase kinase 13 (Homo sapiens) (UniProt O43283); conditions: Compound concentration 1000.0 nM
# [9] = target: Mitogen-activated protein kinase 12 (Homo sapiens) (UniProt P53778); conditions: Compound concentration 1000.0 nM
# [10] = target: Phosphatidylinositol 4,5-bisphosphate 3-kinase catalytic subunit delta isoform (Homo sapiens) (UniProt O00329); conditions: Compound concentration 1000.0 nM
# [11] = test system: Tyrosine-protein kinase ABL1 (Homo sapiens), P00519 [T315I]; conditions: Compound concentration 1000.0 nM
# [12] = target: Serine/threonine-protein kinase MRCK alpha (Homo sapiens) (UniProt Q5VT25); conditions: Compound concentration 1000.0 nM
# [13] = target: D(1B) dopamine receptor (Homo sapiens) (UniProt P21918); conditions: Compound concentration 10.0 uM
# [14] = target: Ribosomal protein S6 kinase alpha-1 (Homo sapiens) (UniProt Q15418); conditions: Compound concentration 1000.0 nM
# [15] = target: Cyclin-G-associated kinase (Homo sapiens) (UniProt O14976); conditions: Compound concentration 1000.0 nM
# [16] = target: 5-hydroxytryptamine receptor 1B (Homo sapiens) (UniProt P28222); conditions: Compound concentration 10.0 uM
# [17] = target: Protein kinase C eta type (Homo sapiens) (UniProt P24723); conditions: Compound concentration 1000.0 nM
# [18] = target: Death-associated protein kinase 2 (Homo sapiens) (UniProt Q9UIK4); conditions: Compound concentration 1000.0 nM
# [19] = target: Macrophage colony-stimulating factor 1 receptor (Homo sapiens) (UniProt P07333); conditions: Compound concentration 1000.0 nM
# [20] = target: Eukaryotic translation initiation factor 2-alpha kinase 1 (Homo sapiens) (UniProt Q9BQI3); conditions: Compound concentration 1000.0 nM
# [21] = target: Ephrin type-B receptor 2 (Homo sapiens) (UniProt P29323); conditions: Compound concentration 1000.0 nM
# [22] = target: Cyclin-dependent kinase 19 (Homo sapiens) (UniProt Q9BWU1); conditions: Compound concentration 1000.0 nM
# [23] = target: 5-hydroxytryptamine receptor 1E (Homo sapiens) (UniProt P28566); conditions: Compound concentration 10.0 uM
# [24] = target: Proto-oncogene tyrosine-protein kinase ROS (Homo sapiens) (UniProt P08922); conditions: Compound concentration 1000.0 nM
# [25] = target: RAF proto-oncogene serine/threonine-protein kinase (Homo sapiens) (UniProt P04049); conditions: Compound concentration 1000.0 nM
# [26] = target: Serine/threonine-protein kinase N1 (Homo sapiens) (UniProt Q16512); conditions: Compound concentration 1000.0 nM
# [27] = target: Ephrin type-B receptor 6 (Homo sapiens) (UniProt O15197); conditions: Compound concentration 1000.0 nM
# [28] = target: Mitogen-activated protein kinase 1 (Homo sapiens) (UniProt P28482); conditions: Compound concentration 1000.0 nM
# [29] = target: 3-phosphoinositide-dependent protein kinase 1 (Homo sapiens) (UniProt O15530); conditions: Compound concentration 1000.0 nM
# [30] = target: Serine/threonine-protein kinase STK11 (Homo sapiens) (UniProt Q15831); conditions: Compound concentration 1000.0 nM
# [31] = target: Histamine H3 receptor (Homo sapiens, UniProt Q9Y5N1); conditions: Compound concentration 10.0 uM
# [32] = target: Dual specificity protein kinase CLK3 (Homo sapiens) (UniProt P49761); conditions: Compound concentration 1000.0 nM
# [33] = target: Mitogen-activated protein kinase kinase kinase 5 (Homo sapiens) (UniProt Q99683); conditions: Compound concentration 1000.0 nM
# [34] = target: Serine/threonine-protein kinase SIK3 (Homo sapiens) (UniProt Q9Y2K2); conditions: Compound concentration 1000.0 nM
# [35] = target: Mitogen-activated protein kinase 10 (Homo sapiens) (UniProt P53779); conditions: Compound concentration 1000.0 nM
# [36] = target: Tyrosine-protein kinase Mer (Homo sapiens) (UniProt Q12866); conditions: Compound concentration 1000.0 nM
# [37] = target: Serine/threonine-protein kinase WNK4 (Homo sapiens) (UniProt Q96J92); conditions: Compound concentration 1000.0 nM
# [38] = target: Rho-associated protein kinase 1 (Homo sapiens) (UniProt Q13464); conditions: Compound concentration 1000.0 nM
# [39] = target: Calcium/calmodulin-dependent protein kinase type 1 (Homo sapiens) (UniProt Q14012); conditions: Compound concentration 1000.0 nM
# [40] = target: MAP kinase-activated protein kinase 5 (Homo sapiens) (UniProt Q8IW41); conditions: Compound concentration 1000.0 nM
# Serine/threonine-protein kinase STK11 (Homo sapiens), sequence (Q15831 whole entry): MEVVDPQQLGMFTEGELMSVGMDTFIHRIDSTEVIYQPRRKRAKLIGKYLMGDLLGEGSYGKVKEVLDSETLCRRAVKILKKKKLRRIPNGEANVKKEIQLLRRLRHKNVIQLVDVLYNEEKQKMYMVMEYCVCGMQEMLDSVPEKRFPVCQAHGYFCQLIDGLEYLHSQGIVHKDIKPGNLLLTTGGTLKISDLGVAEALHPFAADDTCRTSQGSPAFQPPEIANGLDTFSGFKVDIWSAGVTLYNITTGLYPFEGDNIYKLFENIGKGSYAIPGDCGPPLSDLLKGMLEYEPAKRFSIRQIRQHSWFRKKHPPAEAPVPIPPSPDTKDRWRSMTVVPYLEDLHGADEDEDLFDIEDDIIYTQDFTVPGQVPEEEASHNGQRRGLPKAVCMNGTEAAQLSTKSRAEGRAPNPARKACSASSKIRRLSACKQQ
# Mitogen-activated protein kinase 1 (Homo sapiens), sequence (P28482 whole entry): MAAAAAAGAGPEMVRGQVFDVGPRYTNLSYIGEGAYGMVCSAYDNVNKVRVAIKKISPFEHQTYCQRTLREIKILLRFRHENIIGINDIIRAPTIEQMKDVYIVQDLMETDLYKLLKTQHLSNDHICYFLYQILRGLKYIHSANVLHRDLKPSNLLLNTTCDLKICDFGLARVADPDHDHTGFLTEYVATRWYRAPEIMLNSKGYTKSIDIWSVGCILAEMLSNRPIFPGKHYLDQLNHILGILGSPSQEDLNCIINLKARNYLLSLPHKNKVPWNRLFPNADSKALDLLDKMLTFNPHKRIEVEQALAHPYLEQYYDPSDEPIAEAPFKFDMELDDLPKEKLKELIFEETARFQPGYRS
# Serine/threonine-protein kinase WNK4 (Homo sapiens), sequence (Q96J92 whole entry): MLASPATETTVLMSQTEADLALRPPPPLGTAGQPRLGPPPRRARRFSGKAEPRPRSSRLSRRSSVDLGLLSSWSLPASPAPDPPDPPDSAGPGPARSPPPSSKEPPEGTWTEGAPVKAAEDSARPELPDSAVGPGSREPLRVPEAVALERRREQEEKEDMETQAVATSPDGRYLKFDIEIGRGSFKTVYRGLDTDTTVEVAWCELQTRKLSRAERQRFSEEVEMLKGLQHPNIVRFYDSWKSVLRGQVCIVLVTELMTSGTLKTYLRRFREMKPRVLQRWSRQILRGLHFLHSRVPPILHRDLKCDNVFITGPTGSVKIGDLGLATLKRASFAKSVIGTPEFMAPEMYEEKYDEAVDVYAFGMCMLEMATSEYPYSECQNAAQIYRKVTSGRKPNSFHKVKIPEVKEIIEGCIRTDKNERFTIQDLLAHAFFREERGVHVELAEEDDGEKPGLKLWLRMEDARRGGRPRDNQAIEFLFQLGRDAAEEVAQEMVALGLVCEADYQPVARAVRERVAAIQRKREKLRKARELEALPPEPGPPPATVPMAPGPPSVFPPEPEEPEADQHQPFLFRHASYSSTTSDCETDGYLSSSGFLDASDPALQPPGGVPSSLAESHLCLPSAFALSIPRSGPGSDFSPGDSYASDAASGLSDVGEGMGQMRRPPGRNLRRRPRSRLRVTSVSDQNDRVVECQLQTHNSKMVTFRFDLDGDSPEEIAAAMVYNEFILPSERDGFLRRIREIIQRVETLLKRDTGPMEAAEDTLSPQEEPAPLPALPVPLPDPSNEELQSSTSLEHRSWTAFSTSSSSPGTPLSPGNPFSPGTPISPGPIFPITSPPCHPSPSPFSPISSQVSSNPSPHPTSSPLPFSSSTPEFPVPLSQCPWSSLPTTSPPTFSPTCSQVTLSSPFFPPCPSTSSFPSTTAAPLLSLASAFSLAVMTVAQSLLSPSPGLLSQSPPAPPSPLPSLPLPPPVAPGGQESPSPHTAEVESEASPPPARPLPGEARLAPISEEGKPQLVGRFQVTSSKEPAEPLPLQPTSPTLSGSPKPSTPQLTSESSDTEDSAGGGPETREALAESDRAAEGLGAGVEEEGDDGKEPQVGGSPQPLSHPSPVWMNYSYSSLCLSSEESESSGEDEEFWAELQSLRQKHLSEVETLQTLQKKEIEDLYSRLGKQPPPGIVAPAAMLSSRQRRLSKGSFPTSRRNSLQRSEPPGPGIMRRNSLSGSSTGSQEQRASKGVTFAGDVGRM
# Calcium/calmodulin-dependent protein kinase type 1 (Homo sapiens), sequence (Q14012 whole entry, looked up): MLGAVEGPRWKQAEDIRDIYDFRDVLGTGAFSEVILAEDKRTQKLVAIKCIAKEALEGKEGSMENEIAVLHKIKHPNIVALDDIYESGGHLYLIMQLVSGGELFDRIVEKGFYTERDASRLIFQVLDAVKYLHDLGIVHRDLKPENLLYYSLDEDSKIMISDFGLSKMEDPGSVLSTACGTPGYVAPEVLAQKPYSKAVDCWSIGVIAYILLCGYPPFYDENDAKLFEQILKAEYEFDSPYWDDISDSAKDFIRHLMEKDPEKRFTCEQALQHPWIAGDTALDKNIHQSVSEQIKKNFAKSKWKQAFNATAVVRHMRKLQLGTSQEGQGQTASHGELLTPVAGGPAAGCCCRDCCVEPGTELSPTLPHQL
# Rho-associated protein kinase 1 (Homo sapiens), sequence (Q13464 2-1354 limits assumed): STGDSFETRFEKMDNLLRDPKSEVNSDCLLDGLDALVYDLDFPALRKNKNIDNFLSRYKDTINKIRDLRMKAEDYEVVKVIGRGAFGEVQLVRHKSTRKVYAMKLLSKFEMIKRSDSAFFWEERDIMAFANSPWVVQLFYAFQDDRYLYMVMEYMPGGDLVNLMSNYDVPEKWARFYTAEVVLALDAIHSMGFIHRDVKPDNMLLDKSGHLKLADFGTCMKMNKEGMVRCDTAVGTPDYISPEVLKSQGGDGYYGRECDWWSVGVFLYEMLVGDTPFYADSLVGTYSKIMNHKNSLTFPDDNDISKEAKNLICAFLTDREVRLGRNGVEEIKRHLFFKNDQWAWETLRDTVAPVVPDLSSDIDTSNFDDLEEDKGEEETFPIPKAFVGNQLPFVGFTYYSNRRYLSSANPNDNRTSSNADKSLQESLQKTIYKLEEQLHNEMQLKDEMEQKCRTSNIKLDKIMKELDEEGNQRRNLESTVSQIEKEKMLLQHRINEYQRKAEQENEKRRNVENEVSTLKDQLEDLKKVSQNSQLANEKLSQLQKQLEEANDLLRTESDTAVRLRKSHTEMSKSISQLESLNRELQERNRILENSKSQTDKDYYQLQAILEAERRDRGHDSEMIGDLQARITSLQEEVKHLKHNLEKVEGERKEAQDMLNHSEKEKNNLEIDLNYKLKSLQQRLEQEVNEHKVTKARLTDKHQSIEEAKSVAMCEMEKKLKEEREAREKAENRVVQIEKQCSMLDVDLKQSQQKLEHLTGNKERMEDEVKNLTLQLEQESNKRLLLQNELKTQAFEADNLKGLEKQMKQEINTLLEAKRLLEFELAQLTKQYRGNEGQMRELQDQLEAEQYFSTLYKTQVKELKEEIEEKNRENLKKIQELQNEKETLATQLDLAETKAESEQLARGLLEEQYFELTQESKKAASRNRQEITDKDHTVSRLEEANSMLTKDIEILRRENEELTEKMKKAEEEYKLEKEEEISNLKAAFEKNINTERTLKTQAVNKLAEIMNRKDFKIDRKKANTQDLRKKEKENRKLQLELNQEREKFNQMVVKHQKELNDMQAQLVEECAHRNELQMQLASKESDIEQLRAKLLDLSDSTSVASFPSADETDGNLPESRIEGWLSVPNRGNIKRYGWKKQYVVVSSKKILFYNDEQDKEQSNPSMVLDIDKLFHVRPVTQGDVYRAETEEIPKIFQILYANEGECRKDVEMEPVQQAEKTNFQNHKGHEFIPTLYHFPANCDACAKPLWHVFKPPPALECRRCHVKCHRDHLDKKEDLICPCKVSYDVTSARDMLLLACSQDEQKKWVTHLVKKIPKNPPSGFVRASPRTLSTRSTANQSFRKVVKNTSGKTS
# Serine/threonine-protein kinase N1 (Homo sapiens), sequence (Q16512 2-942 limits assumed): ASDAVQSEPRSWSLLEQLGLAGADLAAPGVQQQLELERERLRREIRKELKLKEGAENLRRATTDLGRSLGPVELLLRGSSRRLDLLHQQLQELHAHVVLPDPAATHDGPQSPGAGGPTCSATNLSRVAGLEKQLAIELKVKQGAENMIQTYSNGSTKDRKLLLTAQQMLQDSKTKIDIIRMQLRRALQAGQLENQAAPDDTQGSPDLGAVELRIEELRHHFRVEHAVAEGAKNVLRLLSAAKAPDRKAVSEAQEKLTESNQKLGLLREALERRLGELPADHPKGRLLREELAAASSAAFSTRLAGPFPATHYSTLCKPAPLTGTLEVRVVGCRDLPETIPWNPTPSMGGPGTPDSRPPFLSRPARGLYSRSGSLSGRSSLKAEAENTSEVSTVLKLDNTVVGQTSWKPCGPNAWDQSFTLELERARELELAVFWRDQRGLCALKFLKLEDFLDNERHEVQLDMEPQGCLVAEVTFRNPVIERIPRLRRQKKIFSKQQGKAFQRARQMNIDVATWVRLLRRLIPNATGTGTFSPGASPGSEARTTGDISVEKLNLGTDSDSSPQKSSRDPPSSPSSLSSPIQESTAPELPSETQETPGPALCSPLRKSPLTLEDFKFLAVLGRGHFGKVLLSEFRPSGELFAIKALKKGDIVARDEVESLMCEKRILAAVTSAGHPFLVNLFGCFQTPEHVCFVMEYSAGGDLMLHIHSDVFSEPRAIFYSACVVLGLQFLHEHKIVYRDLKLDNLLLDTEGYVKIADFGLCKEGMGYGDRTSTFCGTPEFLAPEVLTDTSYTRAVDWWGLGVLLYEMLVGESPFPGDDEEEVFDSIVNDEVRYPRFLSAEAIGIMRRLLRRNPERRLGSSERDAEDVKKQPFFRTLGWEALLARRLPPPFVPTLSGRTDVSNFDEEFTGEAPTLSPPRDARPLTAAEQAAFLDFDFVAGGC
# Mitogen-activated protein kinase 12 (Homo sapiens), sequence (P53778 whole entry, canonical isoform): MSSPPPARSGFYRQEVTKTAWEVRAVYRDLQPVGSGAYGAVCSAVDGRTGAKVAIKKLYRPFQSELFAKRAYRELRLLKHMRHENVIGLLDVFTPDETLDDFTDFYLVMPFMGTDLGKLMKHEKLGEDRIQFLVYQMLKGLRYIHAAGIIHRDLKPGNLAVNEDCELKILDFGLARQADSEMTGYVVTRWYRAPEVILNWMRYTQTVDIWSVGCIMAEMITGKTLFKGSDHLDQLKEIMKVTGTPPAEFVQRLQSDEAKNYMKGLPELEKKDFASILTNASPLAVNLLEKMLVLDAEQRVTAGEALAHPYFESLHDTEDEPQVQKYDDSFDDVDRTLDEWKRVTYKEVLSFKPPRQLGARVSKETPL
structure (smiles),measurement,setting,value
CN(C)CC#Cc1ccc(OCCCc2sc(N3CCc4cccc(C(=O)Nc5nc6ccccc6s5)c4C3)nc2C(=O)O)c(F)c1 [A-1155463],residual activity,[1],100%
same,residual activity,[2],100%
same,residual activity,[3],98%
same,inhibition,[4],5.18%
same,residual activity,[5],100%
same,residual activity,[6],88%
same,inhibition,[7],53.3%
same,residual activity,[8],96%
same,residual activity,[9],89%
same,residual activity,[10],100%
same,residual activity,[11],51%
same,residual activity,[12],97%
same,inhibition,[13],40.8%
same,residual activity,[14],81%
same,residual activity,[15],100%
same,inhibition,[16],20.2%
same,residual activity,[17],74%
same,residual activity,[18],90%
same,residual activity,[19],87%
same,residual activity,[20],98%
same,residual activity,[21],100%
same,residual activity,[22],95%
same,inhibition,[23],-4.32%
same,residual activity,[24],93%
same,residual activity,[25],97%
same,residual activity,[26],91%
same,residual activity,[27],100%
same,residual activity,[28],100%
same,residual activity,[29],100%
same,residual activity,[30],100%
same,inhibition,[31],53.3%
same,residual activity,[32],86%
same,residual activity,[33],94%
same,residual activity,[34],77%
same,residual activity,[35],71%
same,residual activity,[36],100%
same,residual activity,[37],81%
same,residual activity,[38],100%
same,residual activity,[39],93%
same,residual activity,[40],99%
